Results as given in publication PMC10484922, “Discovery of a selective and biologically active low-molecular weight antagonist of human interleukin-1β” (Nature Communications, 2023).
“And” between values parts separate entries of the source, which are not always exact repeats. Equal entries are not always repeated. Where two headings read alike, the source gives them in different places. Blank lines part the entries; values can stand above or below the compound they belong to.

How the values were obtained:
[1] = target: T1, IL-1β (Homo sapiens, UniProt P01584); experiment: TR-FRET IL-1β/hIL-1R1 receptor displacement assay; type: biochemical
T1 sequence (P01584 117-269): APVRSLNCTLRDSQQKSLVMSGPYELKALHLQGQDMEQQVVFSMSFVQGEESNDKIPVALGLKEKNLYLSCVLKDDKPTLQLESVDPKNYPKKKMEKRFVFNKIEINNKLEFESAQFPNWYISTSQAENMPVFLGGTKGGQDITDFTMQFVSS
Procedure: After 1 h incubation at room temperature, hIL-1R1 (1–332; Alexa 647 labeled; 50 nM final concentration) and anti-His-Europium W1024 (Perkin Elmer; Cat.No. AD0401, 1 nM final concentration) were added to a final volume of 10 μl per well. […] All experiments were run in triplicates.

[2] = target: T1, IL-1β; experiment: 19F-reporter displacement assay with (S)-1 as probe; type: binding; design: Mature hIL-1β was expressed in Escherichia coli; made in house; host or cells: Escherichia coli BL21 (DE3), pET17b
Procedure: Protein and reporter concentrations were 10 and 40 μM, respectively. To account for changes in sample homogeneity, samples contained 1-(2,2,2-trifluoroacetyl)piperidine-4-carboxylic acid as an internal reference for scaling signal intensities. Three concentrations of the competitor were typically measured, and the related displacement of the probe was converted into Ki-values according to Dalvit and Vulpetti[17]. […] This process was automated with FRPipe, an in-house developed Python script (https://github.com/Novartis/FRPipe) that allows for streamlined analysis of such experiments. […] For visual inspection, an overview containing relevant ^19F peaks, fitting curves, and proton spectra was plotted.
Supplementary Figure 2. 13C-NMR and 19F-NMR reporter assays to monitor early structure activity relationships of analogues of 1. a, b Early structure activity relationships monitored by protein-observed and c-f 19F-NMR reporter assays, exemplified for compound 8. a 1H-13C-HMQC spectra of hIL-1b (50 µM) were acquired in the presence (red) and absence (blue) of 500 µM compound and rows were extracted at the w1-frequency of the peak corresponding to Leu60 Cd1H3. b The degree of protein binding was estimated from the ratio I/I0, where I and I0 correspond to the signal in the presence and absence of compound, respectively. c For the assessment of the KI-values, the signal intensity of a reporter molecule (S)-1 was monitored in 19F-transverse relaxation experiments run in the absence and presence of increasing amounts of compound. d All intensities were scaled to the intensity of an internal standard (all signals in panel c and d are shifted on the X-axis for clarity). e KI-values were retrieved from theoretical binding curves calculated for each compound concentration8. f One-dimensional 1H-NMR spectra were recorded for each assay mixture to assess the structural integrity and solubility of the compound in the sample.
(1 picture or pasted object on this page, not shown here)

[3] = target: T1, IL-1β; experiment: SPR binding of compounds to immobilized hIL-1β; design: Mature hIL-1β was expressed in Escherichia coli; made in house; host or cells: Escherichia coli BL21 (DE3), pET17b
Procedure: All SPR experiments were performed with an SPR-32 instrument (Bruker Daltonics SPR, Hamburg, Germany). SPR chips were from XanTec bioanalytics GmbH (Düsseldorf, Germany).
C-terminally avi-tagged hIL-1β protein was immobilized onto a SAHC200M chip with a neutravidin-coated surface. Immobilization was performed with a protein injection of 0.02 mg/ml IL-1β diluted in PBS pH 7.5 (Gibco 70011-036, 10×), 0.05% Tween-20 for 5 min at 10 μl/min. The running buffer for binding studies of compounds was PBS pH 7.4, 0.05% Tween-20, and 2% DMSO. For the correction of small DMSO variations between samples, injections of 6 solvent samples ranging from 1% to 3% DMSO were run. Compound measurements were performed in MICK mode (multiple injection cycles kinetic) with a dose–response of 10 concentrations. Dissociation constants for compounds (KD) were obtained by determining steady-state fit that followed the 1:1 Langmuir model.
Data analysis was performed with the Sierra Analyzer 3.4.0 software from Bruker. Signal intensities were corrected for nonspecific binding to the surface by subtracting intensities from the reference surface from those of the hIL-1β surfaces (first reference subtraction) and by subtracting the buffer injection (second reference subtraction). KD values were carried out by determining a reporting point close to the end of the injection, used for steady-state fit, in addition to a kinetic fit delivering kon- and koff-values; both fitting models followed the 1:1 Langmuir equation.
Supplementary Figure 3. De termination of binding af fi nit ie s for se l ec ted ana l ogues of 1 by SPR. a - d Gr ap hs of exemplary experimen ts are given , where the sat urat ion of hI L-1b immobil ized on a chip was monitored at various concentrations of compound 3, 12, 10, and 11, respectively. Th e saturati on reached at equ ilibri um (insert) was plo tt ed versus the admini stered concentration and the equ ilibri um bin ding constant was derived from a non-li near lea st square fitting routine. e equ ilibri um and f kinetic bin ding of (S)-2 to IL-1b (kon = 1. 15 x 105 M-1 s-1 and koff = 0. 12 s-1).

[4] = system: HEK-Blue IL-1β cells stimulated with hIL-1α; experiment: HEK293 reporter gene assay, hIL-1α as trigger; type: cell-based, human; details: for reporter gene assay signal, mean (Figure 3d): inhibitor 3nM
Procedure: We used HEK-Blue™ IL-1β cells that respond specifically to IL-1 (# hkb-il1b, InvivoGen). These cells can detect IL-1α and IL-1β, as these cytokines bind to the same receptor, IL-1R1. They express a Seap reporter gene under the control of the IFN-β minimal promoter fused to five NF-kappaB and five AP-1 binding sites. Thirty microliters (300,000 cells/ml) per well of a 384-well plate were plated overnight. Cells were then stimulated with graded concentrations of cytokines (hIL-1α or hIL-1β) in the absence or presence of canakinumab (Ilaris®, ILARI LYVI 150MG 22GLW.012, batch U003 0409)[22], anakinra (Kineret®, 100 mg/0.67 ml injectable solution, Sobi)[23], or compound (S)-2 (compounds were pre-mixed for 1 h with the cytokine prior to addition to cells) and further incubated overnight before assessment of Seap activity.

[5] = Il1b wt, read-out: TR-FRET IC50, individual experiments
[6] = 19F-reporter Ki, protein 10 μM, reporter (S)-1 40 μM
[7] = 19F-reporter, individual experiments (Exp1-58), source data
[8] = source data, read-out: SPR Kd, Mean
[9] = source data, read-out: SPR Kd, individual experiments (Exp1-5)
[10] = steady-state fit, 1:1 Langmuir, read-out: SPR KD
[11] = IL-1beta, 0.01 uM, per experiment
[12] = IL-1beta, 0.02 uM, per experiment
[13] = IL-1beta, 0.1 uM, per experiment
[14] = IL-1beta, 0.2 uM, per experiment
[15] = IL-1beta, 0.6 uM, per experiment
[16] = IL-1beta, 63 uM, per experiment

Compound: Cc1ccc2c(c1)NC(=O)C2(O)c1cc(-c2ccc(C(=O)O)cc2)ccc1O (centres unmarked) [Compound 10]
IC50 [1, 5]: 200 µM and 134 µM
IC50 ([1]; read-out: TR-FRET IL-1β IC50): 178 ± 38 µM
Ki [2, 6]: 75 ± 40 µM
Ki [2, 7]: 103 µM and 47 µM
Kd [3, 8]: 43.6 µM
Kd [3, 9]: 58 µM and 63 µM and 27 µM and 26 µM
Kd [3, 10]: 44 ± 17 µM

Compound: O=C(O)c1ccccc1-c1ccc(O)c(C2(O)C(=O)Nc3cc(Cl)ccc32)c1 (centres unmarked) [Compound 11]
IC50 [1, 5]: 140 µM and 130 µM and 138 µM and 97.9 µM and 136 µM and 106 µM and 133 µM
IC50 ([1]; read-out: TR-FRET IL-1β IC50): 126 ± 17 µM
IC50 ([1]; summary, read-out: TR-FRET IL-1beta IC50, AVRG): 126 µM
Ki [2, 6]: 63 ± 41 µM
Ki [2, 7]: 92 µM and 34 µM
Kd [3, 8]: 31.8 µM
Kd [3, 9]: 34 µM and 37 µM and 36 µM and 26.3 µM and 25.7 µM
Kd [3, 10]: 32 ± 5 µM

TR-FRET calculated % inhibition [1, 11]: -3% and -1% and 0%
TR-FRET raw data [1, 11]: 90 and 159 and 163 and 162 and 161
TR-FRET calculated % inhibition [1, 12]: -1% and 1% and 0%
TR-FRET raw data [1, 12]: 89 and 157 and 158 and 161
TR-FRET calculated % inhibition [1, 13]: 1% and 3%
TR-FRET raw data [1, 13]: 87 and 156 and 155 and 157
TR-FRET calculated % inhibition [1, 14]: 10% and 7%
TR-FRET raw data [1, 14]: 78 and 144 and 149 and 146 and 151
inhibition at 0.2 µM ([1]; IL-1beta, 0.2 uM, per experiment, read-out: TR-FRET calculated % inhibition): 13%
TR-FRET calculated % inhibition [1, 15]: 20% and 23% and 21%
TR-FRET raw data [1, 15]: 67 and 130 and 131 and 128
inhibition at 0.6 µM ([1]; IL-1beta, 0.6 uM, per experiment, read-out: TR-FRET calculated % inhibition): 28%
TR-FRET calculated % inhibition ([1]; IL-1beta, 2 uM, per experiment): 40% and 39%
inhibition at 2 µM ([1]; IL-1beta, 2 uM, per experiment, read-out: TR-FRET calculated % inhibition): 55%
TR-FRET calculated % inhibition ([1]; IL-1beta, 6 uM, per experiment): 61% and 62% and 60%
inhibition at 6 µM ([1]; IL-1beta, 6 uM, per experiment, read-out: TR-FRET calculated % inhibition): 72%
TR-FRET calculated % inhibition ([1]; IL-1beta, 20 uM, per experiment): 80% and 78% and 79%
inhibition at 20 µM ([1]; IL-1beta, 20 uM, per experiment, read-out: TR-FRET calculated % inhibition): 88%
TR-FRET calculated % inhibition [1, 16]: 92%
TR-FRET raw data [1, 16]: 16 and 27 and 29 and 28
inhibition at 63 µM ([1]; IL-1beta, 63 uM, per experiment, read-out: TR-FRET calculated % inhibition): 95%
TR-FRET raw data ([1]; IL-1beta, 200 uM, per experiment): 12 and 16 and 17
inhibition at 200 µM ([1]; IL-1beta, 200 uM, per experiment, read-out: TR-FRET calculated % inhibition): 100%
IC50 [1, 5]: 2.1 µM and 4.2 µM and 4.6 µM and 4.4 µM and 4.7 µM
IC50 ([1]; read-out: TR-FRET IL-1β IC50): 4 ± 1.1 µM
Ki ([2]; protein 10 μM, reporter (S)-1 40 μM, read-out: 19F-reporter Ki): < 10 µM
koff ([3]; kinetic fit): 0.12 s⁻¹
kon ([3]; kinetic fit): 120000 M⁻¹ s⁻¹
Kd [3, 8]: 1.1 µM
Kd [3, 9]: 1.1 µM (2×) and 1 µM
Kd [3, 10]: 1.1 µM
Compound: Cc1ccc2c(c1)NC(=O)[C@@]2(c1cn[nH]c1)c1cc(-c2ccc(C(=O)O)cc2C(=O)O)ccc1O [Compound (S)-2]
reporter activity with hIL-1α as trigger [4]: ineffective

Compound: canakinumab: anti-hIL-1β antibody [reference compound]
reporter gene assay signal, mean (Figure 3d) ([4]; IL-1alpha 3.04596 pg/ml): 0.08
reporter gene assay signal, mean (Figure 3d) ([4]; IL-1alpha 6.09192 pg/ml): 0.12
reporter gene assay signal, mean (Figure 3d) ([4]; IL-1alpha 12.1838 pg/ml): 0.19
reporter gene assay signal, mean (Figure 3d) ([4]; IL-1alpha 24.3677 pg/ml): 0.36
reporter gene assay signal, mean (Figure 3d) ([4]; IL-1alpha 48.7353 pg/ml): 0.66
reporter gene assay signal, mean (Figure 3d) ([4]; IL-1alpha 97.4707 pg/ml): 1.07
reporter gene assay signal, mean (Figure 3d) ([4]; IL-1alpha 194.941 pg/ml): 1.44
reporter gene assay signal, mean (Figure 3d) ([4]; IL-1alpha 389.883 pg/ml): 1.69
reporter gene assay signal, mean (Figure 3d) ([4]; IL-1alpha 779.766 pg/ml): 1.8
reporter gene assay signal, mean (Figure 3d) ([4]; IL-1alpha 1559.53 pg/ml): 1.86
reporter gene assay signal, mean (Figure 3d) ([4]; IL-1alpha 3119.06 pg/ml): 1.88
reporter gene assay signal, mean (Figure 3d) ([4]; IL-1alpha 6238.12 pg/ml): 1.91
reporter gene assay signal, mean (Figure 3d) ([4]; IL-1alpha 12476.2 pg/ml): 1.92
reporter gene assay signal, mean (Figure 3d) ([4]; IL-1alpha 24952.5 pg/ml): 2
reporter gene assay signal, mean (Figure 3d) ([4]; IL-1alpha 49905 pg/ml): 1.98
